In PubChem BioAssay (NCI):
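Protocol summary: plate cells (96-well), add compound at 5 concentrations, incubate 48 h, interpolate endpoints linearly. GI50 marks 50% less growth. Definition used: TGI = concentration required for complete inhibition of growth.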

Experiments:
Assay in all cases: inhibition of tumour cell growth, NCI panel, 48 h
M19-MEL melanoma = system: M19-MEL melanoma
SNB-78 CNS = system: SNB-78 CNS
HOP-18 NSCLC = system: HOP-18 NSCLC
KM20L2 colon = system: KM20L2 colon
DLD-1 colon = system: DLD-1 colon
DMS 114 small cell lung = system: DMS 114 small cell lung
RXF-631 renal = system: RXF-631 renal
MDA-MB-435 = system: MDA-MB-435
MDA-N = system: MDA-N

O=C(c1nc2ccc(Cl)cc2[nH]c1=O)C(O)c1cccc([N+](=O)[O-])c1 (configuration not stated)
TGI (M19-MEL melanoma): > 100 µM | TGI (SNB-78 CNS): > 100 µM | TGI (HOP-18 NSCLC): > 100 µM | TGI (KM20L2 colon): > 100 µM | TGI (DLD-1 colon): > 100 µM | TGI (DMS 114 small cell lung): 17.6 µM

CC/C(=N/O)C(C)C(=O)CCC(=O)Nc1ccc(Cl)cc1 (configuration not stated)
TGI (M19-MEL melanoma): > 100 µM | TGI (SNB-78 CNS): > 100 µM | TGI (HOP-18 NSCLC): > 100 µM | TGI (KM20L2 colon): > 100 µM | TGI (DLD-1 colon): > 100 µM | TGI (DMS 114 small cell lung): > 100 µM

OCC(O)C(OC1OC(CO)C(O)C(O)C1O)c1nn(-c2ccc(Cl)cc2)c2nc3cc(Cl)c(Cl)cc3nc12 (configuration not stated)
TGI (M19-MEL melanoma): > 100 µM | TGI (SNB-78 CNS): > 100 µM | TGI (KM20L2 colon): > 100 µM | TGI (DLD-1 colon): > 100 µM | TGI (DMS 114 small cell lung): > 100 µM

Cc1cccc(/C=N/N=C(\N)NO)n1
TGI (M19-MEL melanoma): > 100 µM | TGI (SNB-78 CNS): > 100 µM | TGI (RXF-631 renal): > 100 µM | TGI (DLD-1 colon): > 100 µM | TGI (DMS 114 small cell lung): > 100 µM

O=C(CC(=O)c1cccc2ccccc12)C(=O)Nc1nccs1
TGI (M19-MEL melanoma): > 100 µM | TGI (SNB-78 CNS): > 100 µM | TGI (HOP-18 NSCLC): > 100 µM | TGI (KM20L2 colon): > 100 µM | TGI (DLD-1 colon): > 100 µM

CCOc1ccc2c(c1)[n+]([O-])c(-c1ccc([N+](=O)[O-])cc1)c(N)[n+]2[O-]
TGI (M19-MEL melanoma): > 100 µM | TGI (SNB-78 CNS): > 100 µM | TGI (HOP-18 NSCLC): > 100 µM | TGI (KM20L2 colon): > 100 µM | TGI (RXF-631 renal): > 100 µM | TGI (DLD-1 colon): > 100 µM | TGI (DMS 114 small cell lung): > 100 µM

COC(=O)C(Br)(C(=O)OC)C(Br)C(Br)C(Br)c1ccccc1 (configuration not stated)
GI50 (MDA-MB-435): 2.48 µM | TGI (MDA-MB-435): 7.36 µM

CN(C)C(=S)/N=C(\N)N(C)C
TGI (M19-MEL melanoma): > 100 µM | TGI (SNB-78 CNS): > 100 µM | TGI (HOP-18 NSCLC): > 100 µM | TGI (KM20L2 colon): > 100 µM | TGI (RXF-631 renal): > 100 µM | TGI (DLD-1 colon): > 100 µM | TGI (DMS 114 small cell lung): > 100 µM

CC(C)CCCC(C)[C@H]1CCC2C3CC=C4C[C@@H](OC(=O)CC(CC(=O)[O-])C(=O)[O-])CC[C@]4(C)C3CC[C@@]21C.N.N.[Pt+4] (some centres not stated)
GI50 (SNB-78 CNS): > 100 µM | TGI (SNB-78 CNS): > 100 µM | GI50 (HOP-18 NSCLC): > 100 µM | TGI (HOP-18 NSCLC): > 100 µM | GI50 (KM20L2 colon): > 100 µM | TGI (KM20L2 colon): > 100 µM

COc1ccc(C#CC2=C(Br)C(=O)OC2)cc1
GI50 (MDA-MB-435): 9.94 µM | TGI (MDA-MB-435): 27.3 µM

CNC(=O)NCCCCC(NC(=O)OCc1ccccc1)C(=O)OCc1ccccc1 (configuration not stated)
TGI (M19-MEL melanoma): 48 µM | TGI (SNB-78 CNS): 70.8 µM | TGI (KM20L2 colon): > 100 µM | TGI (RXF-631 renal): 46.1 µM | TGI (DLD-1 colon): > 100 µM | TGI (DMS 114 small cell lung): 65.7 µM

COC(=O)c1ccc(N/C=C(/C#N)c2ccsc2)cc1
TGI (M19-MEL melanoma): > 100 µM | TGI (SNB-78 CNS): 43.4 µM | TGI (KM20L2 colon): 28.1 µM | TGI (DLD-1 colon): > 100 µM | TGI (DMS 114 small cell lung): 43.8 µM

CC(C)=CC1(C)/C(=N\O)C(C)(CC(C)C)C(=O)N1O (configuration not stated)
TGI (M19-MEL melanoma): > 100 µM | TGI (SNB-78 CNS): > 100 µM | TGI (KM20L2 colon): > 100 µM | TGI (RXF-631 renal): > 100 µM | TGI (DLD-1 colon): > 100 µM | TGI (DMS 114 small cell lung): > 100 µM

O=C(Cc1ccccc1)N/N=C(/c1nc2ccc([N+](=O)[O-])cc2[nH]c1=O)C(O)c1ccco1 (configuration not stated)
TGI (M19-MEL melanoma): > 100 µM | TGI (SNB-78 CNS): > 100 µM | TGI (HOP-18 NSCLC): > 100 µM | TGI (DLD-1 colon): > 100 µM | TGI (DMS 114 small cell lung): > 100 µM

CCOC(=O)C1=C(Nc2cccc3ccccc23)OCC1=O
TGI (SNB-78 CNS): > 100 µM | TGI (KM20L2 colon): > 100 µM | TGI (RXF-631 renal): > 100 µM | TGI (DLD-1 colon): > 100 µM

CC(C)(C)c1cc(C#N)c2c(c1)C(=O)OC2(c1ccccc1)c1ccccc1C#N (configuration not stated)
TGI (M19-MEL melanoma): > 100 µM | TGI (SNB-78 CNS): > 100 µM | TGI (HOP-18 NSCLC): > 100 µM | TGI (KM20L2 colon): > 100 µM | TGI (DLD-1 colon): > 100 µM | TGI (DMS 114 small cell lung): > 100 µM

C=C(C)[C@@H]1CC[C@]2(COC(=O)c3ccccc3C(=O)O)CC[C@]3(C)[C@H](CC[C@@H]4[C@@]5(C)CC[C@H](OC(=O)c6ccccc6C(=O)O)C(C)(C)[C@@H]5CC[C@]43C)[C@@H]12
GI50 (MDA-MB-435): 34.6 µM | TGI (MDA-MB-435): > 100 µM

CSc1ccc(NC(=O)CCl)cc1
TGI (MDA-N): > 10 µM | TGI (MDA-MB-435): > 10 µM

COc1ccc2c3c1OC1C4(CCC5C(C2)N(CC2CC2)CCC351)OCCO4 (configuration not stated)
TGI (MDA-N): > 100 µM | TGI (MDA-MB-435): > 100 µM

Cn1c(=S)c2[nH]c(SCc3cccnc3)nc2n(C)c1=O
TGI (MDA-N): > 100 µM | TGI (MDA-MB-435): > 100 µM

CC(C)(C)[Si](C)(C)O/N=C\c1cccc(O[Si](C)(C)C(C)(C)C)c1
TGI (M19-MEL melanoma): 34.6 µM | TGI (SNB-78 CNS): 30.8 µM | TGI (HOP-18 NSCLC): 42.3 µM | TGI (KM20L2 colon): 38.8 µM | TGI (DLD-1 colon): 33.6 µM | TGI (DMS 114 small cell lung): 35.6 µM

COc1ccc2c(ccc3oc([N+](=O)[O-])cc32)c1
GI50 (MDA-MB-435): 0.047 µM | TGI (MDA-MB-435): 0.186 µM

C=CC(=O)N1CCC(CNc2ncnc(N)c2-c2ccc(Oc3ccccc3)cc2)CC1
GI50 (MDA-MB-435): 27.9 µM | TGI (MDA-MB-435): 97.5 µM

O=CCC(O)C(O)C(O)CO (configuration not stated)
GI50 (MDA-MB-435): > 100 µM | TGI (MDA-MB-435): > 100 µM

COC(=O)CCC(=O)Nc1cc(C)ccc1C
TGI (M19-MEL melanoma): > 100 µM | TGI (SNB-78 CNS): > 100 µM | TGI (HOP-18 NSCLC): > 100 µM | TGI (RXF-631 renal): > 100 µM | TGI (DLD-1 colon): > 100 µM | TGI (DMS 114 small cell lung): > 100 µM

Cc1ccc(Nn2c(SCC(=O)Nc3nc(-c4ccccc4)cs3)nc(C)c2C)cc1
GI50 (MDA-MB-435): 2.66 µM | TGI (MDA-MB-435): 9.54 µM

COc1cc2c3c(n(CCCN=[N+]=[N-])c(=O)c2cc1OC)-c1ccc(NC(C)=O)cc1C3=O
GI50 (MDA-MB-435): > 50 µM | TGI (MDA-MB-435): > 50 µM

CC(NNC(=S)N1CCN(c2ccccn2)CC1)c1cccc[n+]1[O-] (configuration not stated)
TGI (MDA-N): > 100 µM | TGI (MDA-MB-435): > 100 µM

C=C(C)C1Cc2cc(C(C)=O)ccc2O1 (configuration not stated)
TGI (MDA-N): > 100 µM | TGI (MDA-MB-435): > 100 µM

N#Cc1cc2c(=S)[nH]c(=S)[nH]c2nc1SCc1ccccc1
GI50 (MDA-MB-435): 34.8 µM | TGI (MDA-MB-435): > 100 µM

CC1=CC[C@@H]2C(=O)C=CC=C[C@H]12.[C-]#[O+].[C-]#[O+].[C-]#[O+].[Fe]
GI50 (M19-MEL melanoma): > 100 µM | TGI (M19-MEL melanoma): > 100 µM | GI50 (HOP-18 NSCLC): > 100 µM | TGI (HOP-18 NSCLC): > 100 µM | GI50 (KM20L2 colon): > 100 µM | TGI (KM20L2 colon): > 100 µM | GI50 (DLD-1 colon): > 100 µM | TGI (DLD-1 colon): > 100 µM | GI50 (DMS 114 small cell lung): > 100 µM | TGI (DMS 114 small cell lung): > 100 µM

O=C(O)c1ccccc1C(=O)Nc1cc2c(cc1Br)-c1ccccc1C2=O
TGI (MDA-N): > 100 µM | TGI (MDA-MB-435): > 100 µM

COc1cc(-c2cn(-c3ccc(F)cc3)c(=O)[nH]2)cc(OC)c1OC
GI50 (MDA-MB-435): > 100 µM | TGI (MDA-MB-435): > 100 µM

NCCNc1nc2ccc(F)cc2c2c(=O)c3cc(F)ccc3sc12
GI50 (MDA-MB-435): 1.77 µM | TGI (MDA-MB-435): 3.29 µM

CCSc1nc(N)c(C#N)c(-c2ccc(OC)c(OC)c2)c1C#N
GI50 (MDA-MB-435): 3.85 µM | TGI (MDA-MB-435): 22.5 µM
